Structures are written as SMILES. Like-named read-outs stand apart in the source and are kept apart here.

One experiment deals with Kir1.1 (ROMK1) (Homo sapiens (Human), UniProt P48048). The experiment is described as follows: Electrophysiology Assay (IonWorks Quattro whole cell voltage clamp). (In patch-clamp work, channel activity is measured electrically.)
A further experiment concerns the target hROMK (hKir1.1) (Homo sapiens (Human), UniProt P48048). The experiment is described as follows: Thallium Flux Assay. In kind it is cell-based. The method, then: At >80% confluency, aspirate the media from the flask and rinse with 10 mL Calcium/Magnesium-free PBS. […] To dislodge the cell, gently bang the side of the flask with your hand. Triturate the cells completely and then transfer the cells to 25 mL complete media. Centrifuge at 1,500 rpm for 6 min followed by resuspension in complete growth media and determine cell concentration. […] Under ideal growth conditions and appropriate tissue culture practices, this cell line is stable for 40-45 passages. FluxOR Kit Components (Invitrogen F10017) • FluxOR™ Reagent (Component A) • FluxOR™ Assay Buffer (Component B)—10× Concentrate • PowerLoad™ Concentrate (Component C)—100× Concentrate • Probenecid (Component D)—Lyophilized sample is kept at −20° C. Water soluble, 100× after solubilization in 1 mL water. […] Store at 4° C. • Thallium sulfate (Tl2SO4) Concentrate (Component G)—50 mM in water. […]
The fluorescence intensity of wells containing 3 μM of a standard control ROMK inhibitor of the present invention is used to define the ROMK-sensitive component of thallium flux. Fluorescence in the presence of test compounds is normalized to control values to provide % fluorescence change.

hROMK (hKir1.1), sequence (P48048 whole entry): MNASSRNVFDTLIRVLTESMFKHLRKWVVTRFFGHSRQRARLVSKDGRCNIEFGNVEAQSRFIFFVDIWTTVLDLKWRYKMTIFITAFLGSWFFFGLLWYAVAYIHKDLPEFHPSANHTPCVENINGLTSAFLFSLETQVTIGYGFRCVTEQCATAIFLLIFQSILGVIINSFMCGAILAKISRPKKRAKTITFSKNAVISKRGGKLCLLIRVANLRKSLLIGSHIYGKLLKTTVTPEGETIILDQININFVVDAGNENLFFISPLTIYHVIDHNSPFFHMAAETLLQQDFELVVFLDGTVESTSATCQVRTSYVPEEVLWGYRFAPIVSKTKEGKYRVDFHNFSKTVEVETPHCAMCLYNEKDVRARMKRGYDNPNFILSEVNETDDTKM
Kir1.1 (ROMK1), sequence (P48048 whole entry): as above
Description for Kir1.1 (ROMK1): Chinese hamster ovary cells stably expressing Kir1.1 channels were maintained in T-75 flasks in cell culture media in a humidified 10% CO2 incubator at 37° C. Prior to an experiment, Kir1.1 expression was induced by overnight incubation with 1 mM sodium butyrate. […] After centrifugation, the cell pellet was resuspended in approximately 4.0 mL of bath solution and placed in the IonWorks instrument. The intracellular solution consisted of (in mM): 80 K gluconate, 40 KCl, 20 KF, 3.2 MgCl2, 3 EGTA, 5 Hepes, pH 7.4. Electrical access to the cytoplasm was achieved by perforation in 0.13 mg/mL amphotericin B for 4 min. […] Voltage protocols and current recordings were performed using the IonWorks HT software/hardware system. Currents were sampled at 1 kHz. No correction for liquid junction potentials was used. The test pulse, consisting of a 100 ms step to 0 mV from a holding potential of −70 mV, followed by a 100 ms voltage ramp from −70 mV to +70 mV, was applied before and after a 6 min compound incubation period. Test compounds were prepared by diluting DMSO stock solutions into the bath solution at 3× the final concentration and placed in the instrument in 96-well polypropylene plates. Current amplitudes were measured using the IonWorks software.

A word on the IC50: it is the concentration that gives 50% inhibition. At Kir1.1 (ROMK1), `O=C1OCCc2cc([C@@H]3CN4CCN(C(=O)Cc5ccc(-n6cnnn6)nc5)C[C@H]4CO3)ccc21` [Example 1] had an IC50 of 60 nM.
`Cc1nc(-n2cnnn2)ccc1CC(=O)N1CCN2C[C@H](c3ccc(F)c(C#N)c3F)OC[C@@H]2C1` [Example 89, 2,6-difluoro-3-[(3S,9aS)-8-{[2-methyl-6-(1H-tetrazol-1-yl)pyridin-3-yl]acetyl}octahydropyrazino[2,1-c][1,4]oxazin-3-yl]benzonitrile] registered an IC50 on hROMK (hKir1.1) of 70 nM.
`N#Cc1cc([C@@H]2CN3CCN(C(=O)Cc4cnc(-n5cnnn5)nc4)C[C@H]3CO2)ccc1F` [Example 142, 2-fluoro-5-[(3R,9aS)-8-{[2-(1H-tetrazol-1-yl)pyrimidin-5-yl]acetyl}octahydropyrazino[2,1-c][1,4]oxazin-3-yl]benzonitrile]: the IC50 at hROMK (hKir1.1) (HEK293 cells stably expressing hROMK (hKir1.1), FLIPR-Tetra, read-out: Thallium Flux IC50) is 100 nM.

The values above are taken from patent US9206199B2, “Inhibitors of the renal outer medullary potassium channel” (Merck Sharp & Dohme Corp., priority 2011, dated 2015).
